According to ChEMBL document CHEMBL1201862, “PubChem BioAssay data set” (2004):
Values joined by “and” are separate entries in the source; they are usually repeats but may differ in a detail not shown here. Equal entries are not always repeated. Active and inactive are the calls of the source.

Assays:
[1] = biological target: T1, Matrix metalloproteinase-14 (Homo sapiens, UniProt P50281); assay: Dose Response confirmation of uHTS hits for a small molecule inhibitors of MT1-MMP activation in a fluorescence assay set 1.; type: functional
Nonstructural protein 1 = Nonstructural protein 1 (Influenza A virus, UniProt Q194T2); type: functional, Influenza A virus (A/California/07/2009(H1N1))
Sequence of Nonstructural protein 1 (Q194T2 whole entry): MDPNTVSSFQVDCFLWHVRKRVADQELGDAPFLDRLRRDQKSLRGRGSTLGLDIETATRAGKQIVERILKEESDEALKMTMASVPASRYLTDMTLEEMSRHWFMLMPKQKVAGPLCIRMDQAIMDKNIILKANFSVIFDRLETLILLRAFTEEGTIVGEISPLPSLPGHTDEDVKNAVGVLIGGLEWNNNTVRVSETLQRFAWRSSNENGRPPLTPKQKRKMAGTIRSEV

[2] = biological target: T2, Beta-2 adrenergic receptor (Homo sapiens, UniProt P07550); assay: beta2AR agonists driving receptor internalization, dose response, cell-based, FAP fluorogen, flow cytometry, cherry pick 1 (AID 588763); type: functional
T2 sequence (P07550 whole entry): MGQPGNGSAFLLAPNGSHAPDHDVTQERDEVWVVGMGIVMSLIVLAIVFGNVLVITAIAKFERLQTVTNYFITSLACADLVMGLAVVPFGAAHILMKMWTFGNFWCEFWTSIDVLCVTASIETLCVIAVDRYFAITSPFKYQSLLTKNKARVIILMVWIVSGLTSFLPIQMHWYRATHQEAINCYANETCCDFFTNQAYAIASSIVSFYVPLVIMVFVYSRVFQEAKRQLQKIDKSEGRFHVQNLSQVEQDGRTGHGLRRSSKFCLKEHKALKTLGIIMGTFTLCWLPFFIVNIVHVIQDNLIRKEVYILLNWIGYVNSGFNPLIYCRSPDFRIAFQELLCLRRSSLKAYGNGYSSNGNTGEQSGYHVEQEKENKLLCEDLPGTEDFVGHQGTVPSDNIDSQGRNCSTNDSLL

[3] = biological target: T2, Beta-2 adrenergic receptor; assay: Dose response for HTS for Beta-2AR agonists via FAP method from Powderset1.; type: functional
Beta-lactamase [4] = biological target: Beta-lactamase (Salmonella choleraesuis (strain SC-B67), UniProt Q5J463); assay: Epi-absorbance-based counterscreen for selective VIM-2 inhibitors: dose response biochemical high throughput screening assay to identify inhibitors of TEM-1 serine-beta-lactamase.
Sequence of Beta-lactamase (Salmonella choleraesuis (strain SC-B67), UniProt Q5J463) (Q5J463 whole entry): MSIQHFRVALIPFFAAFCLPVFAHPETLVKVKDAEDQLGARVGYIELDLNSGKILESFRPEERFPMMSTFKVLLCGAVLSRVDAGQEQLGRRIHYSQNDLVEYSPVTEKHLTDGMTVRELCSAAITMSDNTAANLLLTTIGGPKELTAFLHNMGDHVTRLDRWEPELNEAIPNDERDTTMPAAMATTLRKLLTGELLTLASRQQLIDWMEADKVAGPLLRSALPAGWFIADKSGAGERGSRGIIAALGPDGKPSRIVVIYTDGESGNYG

Beta-lactamase [5] = biological target: T3, Beta-lactamase (Pseudomonas aeruginosa, UniProt Q79MP6); assay: IMP-1 metallo-beta-lactamase inhibitors, dose response, selectivity assay for VIM-2 inhibitor project, biochemical, epi-absorbance (AID 1920)
T3 sequence (Q79MP6 whole entry): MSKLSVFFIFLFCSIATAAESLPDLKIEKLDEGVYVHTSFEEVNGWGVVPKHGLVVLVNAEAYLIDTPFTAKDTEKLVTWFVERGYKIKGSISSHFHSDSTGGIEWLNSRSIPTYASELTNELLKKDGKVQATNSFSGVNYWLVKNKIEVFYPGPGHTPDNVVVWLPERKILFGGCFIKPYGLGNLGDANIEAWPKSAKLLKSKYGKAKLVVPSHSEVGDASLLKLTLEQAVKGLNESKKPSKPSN

Beta-lactamase [6] = biological target: T3, Beta-lactamase; assay: […] counterscreen for selective VIM-2 inhibitors: dose response biochemical high throughput screening assay to identify inhibitors of IMP-1 metallo-beta-lactamase.
[7] = biological target: Fructose-bisphosphate aldolase (Mycobacterium tuberculosis, UniProt P9WQA3); assay: Fluorescence-based biochemical high throughput dose response assay for inhibitors of the fructose-bisphosphate aldolase (FBA) of M. tuberculosis.; type: functional
Sequence of Fructose-bisphosphate aldolase (P9WQA3 whole entry): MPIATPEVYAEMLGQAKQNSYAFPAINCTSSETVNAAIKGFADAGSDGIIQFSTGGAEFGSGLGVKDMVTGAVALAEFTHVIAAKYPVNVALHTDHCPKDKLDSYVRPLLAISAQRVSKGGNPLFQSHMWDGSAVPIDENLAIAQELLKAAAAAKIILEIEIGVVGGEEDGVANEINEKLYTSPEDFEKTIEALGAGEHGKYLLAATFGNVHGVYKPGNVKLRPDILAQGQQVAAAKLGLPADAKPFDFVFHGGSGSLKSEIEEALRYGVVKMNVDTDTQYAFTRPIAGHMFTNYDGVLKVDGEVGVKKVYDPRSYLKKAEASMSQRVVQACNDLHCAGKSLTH

[8] = Luminescence Cell-Based Dose Confirmation to Identify Activators of 5'UTR Stem-Loop Driven Alpha-Synuclein mRNA Translation in H4 Neuroglioblastoma Cells. [Related pubchem assays: 1829 (Project Summary), 1814 (Primary HTS)]; type: functional
[9] = Luminescence Cell-Based Dose Response HTS to Identify Activators of Luciferase Translation or Activity in H4 […] Cells. [Related pubchem assays: 1829 (Project Summary), 1814 (Primary HTS)]; type: functional
[10] = biological target: Photoreceptor-specific nuclear receptor (Homo sapiens, UniProt Q9Y5X4); assay: NR2E3 inverse agonists, dose response, biochemical, TR-FRET (AID 463256); type: functional
Sequence of Photoreceptor-specific nuclear receptor (Q9Y5X4 whole entry): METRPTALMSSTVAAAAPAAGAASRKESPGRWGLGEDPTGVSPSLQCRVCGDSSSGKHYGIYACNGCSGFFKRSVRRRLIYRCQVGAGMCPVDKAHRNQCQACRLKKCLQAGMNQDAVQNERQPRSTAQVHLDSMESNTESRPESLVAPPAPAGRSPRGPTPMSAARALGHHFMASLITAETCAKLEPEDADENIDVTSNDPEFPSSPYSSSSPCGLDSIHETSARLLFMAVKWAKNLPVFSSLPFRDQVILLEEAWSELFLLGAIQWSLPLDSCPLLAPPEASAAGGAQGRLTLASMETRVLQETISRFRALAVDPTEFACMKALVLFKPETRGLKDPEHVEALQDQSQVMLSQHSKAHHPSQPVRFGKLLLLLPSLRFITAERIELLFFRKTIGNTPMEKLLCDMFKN

[11] = Luminescence Cell-Based Dose Response to Identify Activators of 5'UTR Stem-Loop Driven Prion Protein mRNA Translation in H4-C Neuroglioblastoma Cells. [Related pubchem assays: 1829 (Project Summary), 1814 (Primary HTS)]; type: functional
H4 = assay: Luminescence Cell-Based Dose Response HTS to Identify Activators of 5'UTR Stem-Loop Driven Prion Protein mRNA Translation in H4 Neuroglioblastoma Cells. [Related pubchem assays: 1829 (Project Summary), 1814 (Primary HTS)]; type: functional; conditions: Homo sapiens
[12] = Luminescence Cell-Based Dose Response to Identify Activators of Luciferase Translation or Activity in H4-C Neuroglioblastoma Cells. [Related pubchem assays: 1829 (Project Summary), 1814 (Primary HTS)]; type: functional
[13] = biological target: Peroxisome proliferator-activated receptor gamma/Nuclear receptor corepressor 2 (Homo sapiens, UniProt P37231+Q9Y618); assay: Counterscreen for NR2E3 inverse agonists: TR-FRET-based biochemical high throughput dose response assay to identify inverse agonists of the interaction between peroxisome proliferator-activated receptor gamma (PPARg) and nuclear receptor co-repressor 2 (NCOR2).; type: functional
Kallikrein-7 = Kallikrein-7 (Homo sapiens, UniProt P49862); assay: Fluorescence Intensity-based biochemical primary high throughput dose response assay to identify activators of kallikrein-7 (K7) zymogen.
Sequence of Kallikrein-7 (P49862 whole entry): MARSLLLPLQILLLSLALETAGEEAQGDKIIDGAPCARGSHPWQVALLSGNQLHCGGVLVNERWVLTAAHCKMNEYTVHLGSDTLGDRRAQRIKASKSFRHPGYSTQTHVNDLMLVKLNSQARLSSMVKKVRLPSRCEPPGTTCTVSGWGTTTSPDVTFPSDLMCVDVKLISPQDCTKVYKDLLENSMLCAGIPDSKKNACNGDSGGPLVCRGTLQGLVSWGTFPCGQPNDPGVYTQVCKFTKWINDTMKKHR

[14] = EDANS-DABCYL fluorescence interference, concentration series, dose response, artefact control for kallikrein-7 zymogen activator project, biochemical, fluorescence intensity, triplicate (AID 720493)
Estrogen receptor = biological target: T4, Estrogen receptor (Homo sapiens, UniProt P03372);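 further: potency for inhibiting coactivator peptide recruitment to the receptor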
T4 sequence (P03372 whole entry): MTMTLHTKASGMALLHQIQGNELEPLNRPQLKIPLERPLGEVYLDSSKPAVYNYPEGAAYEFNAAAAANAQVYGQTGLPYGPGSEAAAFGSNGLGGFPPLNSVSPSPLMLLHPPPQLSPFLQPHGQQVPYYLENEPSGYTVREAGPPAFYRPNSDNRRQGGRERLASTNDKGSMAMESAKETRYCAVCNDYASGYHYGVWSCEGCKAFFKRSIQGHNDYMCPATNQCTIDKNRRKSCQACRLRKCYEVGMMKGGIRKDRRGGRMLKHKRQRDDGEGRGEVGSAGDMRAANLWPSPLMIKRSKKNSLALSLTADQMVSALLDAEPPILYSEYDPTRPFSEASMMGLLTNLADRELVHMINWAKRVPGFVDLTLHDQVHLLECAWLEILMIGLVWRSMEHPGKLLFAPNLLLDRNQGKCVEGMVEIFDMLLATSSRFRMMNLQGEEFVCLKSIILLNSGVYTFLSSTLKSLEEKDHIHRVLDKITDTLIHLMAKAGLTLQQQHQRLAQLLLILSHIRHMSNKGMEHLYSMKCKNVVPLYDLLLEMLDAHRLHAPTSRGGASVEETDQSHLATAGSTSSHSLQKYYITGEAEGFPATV

[15] = biological target: Arf-GAP with SH3 domain, ANK repeat and PH domain-containing protein 1 (Homo sapiens, UniProt Q9ULH1); type: functional;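 further: biochemical fluorescence polarization dose–response screen measuring inhibition of ASAP1; ASAP1 GAP domain stimulating GTP hydrolysis by truncated human ARF1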
[16] = biological target: Endoplasmic reticulum aminopeptidase 1 (Homo sapiens, UniProt Q9NZ08); assay: ERAP1 aminopeptidase inhibitors, dose response, biochemical, cherry-pick, set 2, plate reader (AID 743314)
Sequence of Endoplasmic reticulum aminopeptidase 1 (Q9NZ08 whole entry): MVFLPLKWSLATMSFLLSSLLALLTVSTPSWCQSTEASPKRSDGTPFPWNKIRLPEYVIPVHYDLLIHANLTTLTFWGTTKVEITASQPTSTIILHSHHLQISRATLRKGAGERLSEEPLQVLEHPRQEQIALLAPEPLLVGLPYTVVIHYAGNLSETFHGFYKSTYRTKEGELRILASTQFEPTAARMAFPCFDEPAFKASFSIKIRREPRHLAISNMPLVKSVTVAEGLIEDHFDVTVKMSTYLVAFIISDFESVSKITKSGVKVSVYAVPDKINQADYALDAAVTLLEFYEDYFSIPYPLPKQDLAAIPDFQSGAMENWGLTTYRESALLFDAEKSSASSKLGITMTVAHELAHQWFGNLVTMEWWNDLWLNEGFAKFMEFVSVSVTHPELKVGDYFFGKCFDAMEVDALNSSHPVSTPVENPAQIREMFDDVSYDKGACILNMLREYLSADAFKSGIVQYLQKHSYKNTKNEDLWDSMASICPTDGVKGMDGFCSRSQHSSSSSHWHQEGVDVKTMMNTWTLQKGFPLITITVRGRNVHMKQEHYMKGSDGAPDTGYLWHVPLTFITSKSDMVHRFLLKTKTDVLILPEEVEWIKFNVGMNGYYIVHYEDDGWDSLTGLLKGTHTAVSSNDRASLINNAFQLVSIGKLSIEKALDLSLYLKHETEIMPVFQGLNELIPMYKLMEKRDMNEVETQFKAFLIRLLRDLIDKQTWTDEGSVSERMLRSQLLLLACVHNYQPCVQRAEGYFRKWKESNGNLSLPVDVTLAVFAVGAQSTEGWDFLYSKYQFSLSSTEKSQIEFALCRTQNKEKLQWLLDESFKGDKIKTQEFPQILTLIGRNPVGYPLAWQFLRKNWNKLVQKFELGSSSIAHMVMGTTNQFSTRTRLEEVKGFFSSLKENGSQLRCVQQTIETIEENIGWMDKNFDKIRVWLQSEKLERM

[17] = HepG2 cell cytotoxicity, dose response, cytotoxicity control, ATP luminescence, cherry-pick, activator set 2 (AID 1053143); type: functional, cell-based
[18] = biological target: T1, Matrix metalloproteinase-14; assay: Dose Response confirmation of uHTS hits for a small molecule inhibitors of MT1-MMP activation in a fluorescence assay set 2.; type: functional
Vero = assay: Vero cell toxicity, dose response, cytotoxicity control, plate reader, cherry-pick samples (AID 687020); type: functional, cell-based; conditions: Chlorocebus sabaeus
Paired box protein Pax-8 = Paired box protein Pax-8 (Homo sapiens, UniProt Q06710); assay: inhibitors of PAX8-driven TPO luciferase reporter, dose response, RMG-I cells, cherry-pick (AID 687027); type: functional, cell-based;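 further: luciferase reporter driven by Pax8 target thyroperoxidase promoter measured by SteadyGlo luminescence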
Sequence of Paired box protein Pax-8 (Q06710 whole entry): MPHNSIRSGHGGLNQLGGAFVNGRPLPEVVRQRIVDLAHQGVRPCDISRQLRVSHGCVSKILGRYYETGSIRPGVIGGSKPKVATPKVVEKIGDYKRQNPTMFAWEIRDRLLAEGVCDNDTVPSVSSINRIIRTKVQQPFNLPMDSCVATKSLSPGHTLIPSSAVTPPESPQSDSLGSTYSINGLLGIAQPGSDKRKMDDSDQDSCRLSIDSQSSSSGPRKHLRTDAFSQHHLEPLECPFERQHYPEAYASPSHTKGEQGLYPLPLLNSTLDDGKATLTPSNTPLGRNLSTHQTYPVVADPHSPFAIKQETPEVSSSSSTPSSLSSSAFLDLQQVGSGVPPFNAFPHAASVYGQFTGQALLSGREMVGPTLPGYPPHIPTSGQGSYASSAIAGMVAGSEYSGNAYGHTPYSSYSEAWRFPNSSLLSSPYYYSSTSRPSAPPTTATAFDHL

A549 = assay: A549 cell toxicity, dose response, cytotoxicity control, plate reader, cherry-pick samples (AID 687028); type: functional, cell-based; conditions: Homo sapiens
BHK-21 = assay: BHK-21 cell toxicity, dose response, cytotoxicity control, plate reader, cherry-pick samples (AID 687030); type: functional, cell-based; conditions: Mesocricetus auratus
[19] = LMP1-driven NF-kB reporter inhibition, dose response, cell-based, luciferase reporter, luminescence, dry powder, set 2 (AID 624376); type: functional
[20] = inhibitors of LMP1-driven NF-kB reporter, dose response, cell-based, EBV LMP1, luciferase, dry powder, set 2 (AID 624361); type: functional
[21] = NIH:OVCAR-3 ovarian cancer cell cytotoxicity, dose response, PAX8 inhibitor project, plate reader, dry powder samples (AID 743044); type: functional, cell-based
[22] = cytotoxicity in OVCAR8 ovarian cancer cells, dose response, PAX8 project, cell-based, plate reader, dry powder samples (AID 743197); type: functional; conditions: OVCAR-8
[23] = inhibitors of TNFa-stimulated NF-kB luciferase reporter, dose response, selectivity assay for EBV LMP1 NF-kB inhibitor project, HEK293 LMP1 reporter cells, dry powder, set 2 (AID 624369); type: functional
Caspase-6 = biological target: T5, Caspase-6 (Homo sapiens, UniProt P55212); assay: human caspase-6 inhibitors, dose response, biochemical, VEID-R110 fluorescence, dry powder retest (AID 743332)
T5 sequence (P55212 whole entry): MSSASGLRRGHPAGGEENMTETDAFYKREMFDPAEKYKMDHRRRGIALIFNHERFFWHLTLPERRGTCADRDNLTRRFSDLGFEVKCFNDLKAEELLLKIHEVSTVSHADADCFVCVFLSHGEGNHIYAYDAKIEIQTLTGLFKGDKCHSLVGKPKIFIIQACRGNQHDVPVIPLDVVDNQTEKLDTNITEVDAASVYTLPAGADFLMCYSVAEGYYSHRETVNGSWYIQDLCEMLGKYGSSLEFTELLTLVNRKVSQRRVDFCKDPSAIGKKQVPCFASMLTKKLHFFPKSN

[24] = Keap1-Nrf2 protein-protein interaction inhibitors, dose response, biochemical, fluorescence polarization, dry powder, set 2 (AID 651801)
[25] = Keap1-Nrf2 protein-protein interaction inhibitors, dose response, biochemical, fluorescence polarization, dry powder samples (AID 651798)
[26] = Cytotoxicity screening for potential Inhibitors of Bacterial Capsule Biogenesis (4).; type: functional
[27] = Keap1 Kelch-Nrf2 peptide binding inhibitors, dose response, biochemical, fluorescence polarization, dry powder, set 3 (AID 651806)
[28] = biological target: Metabotropic glutamate receptor 3 (Rattus norvegicus, UniProt P31422); assay: mGlu3 negative allosteric modulator potency, dose response, HEK/GIRK cells, thallium flux, rat (AID 651839); type: functional
Sequence of Metabotropic glutamate receptor 3 (P31422 whole entry): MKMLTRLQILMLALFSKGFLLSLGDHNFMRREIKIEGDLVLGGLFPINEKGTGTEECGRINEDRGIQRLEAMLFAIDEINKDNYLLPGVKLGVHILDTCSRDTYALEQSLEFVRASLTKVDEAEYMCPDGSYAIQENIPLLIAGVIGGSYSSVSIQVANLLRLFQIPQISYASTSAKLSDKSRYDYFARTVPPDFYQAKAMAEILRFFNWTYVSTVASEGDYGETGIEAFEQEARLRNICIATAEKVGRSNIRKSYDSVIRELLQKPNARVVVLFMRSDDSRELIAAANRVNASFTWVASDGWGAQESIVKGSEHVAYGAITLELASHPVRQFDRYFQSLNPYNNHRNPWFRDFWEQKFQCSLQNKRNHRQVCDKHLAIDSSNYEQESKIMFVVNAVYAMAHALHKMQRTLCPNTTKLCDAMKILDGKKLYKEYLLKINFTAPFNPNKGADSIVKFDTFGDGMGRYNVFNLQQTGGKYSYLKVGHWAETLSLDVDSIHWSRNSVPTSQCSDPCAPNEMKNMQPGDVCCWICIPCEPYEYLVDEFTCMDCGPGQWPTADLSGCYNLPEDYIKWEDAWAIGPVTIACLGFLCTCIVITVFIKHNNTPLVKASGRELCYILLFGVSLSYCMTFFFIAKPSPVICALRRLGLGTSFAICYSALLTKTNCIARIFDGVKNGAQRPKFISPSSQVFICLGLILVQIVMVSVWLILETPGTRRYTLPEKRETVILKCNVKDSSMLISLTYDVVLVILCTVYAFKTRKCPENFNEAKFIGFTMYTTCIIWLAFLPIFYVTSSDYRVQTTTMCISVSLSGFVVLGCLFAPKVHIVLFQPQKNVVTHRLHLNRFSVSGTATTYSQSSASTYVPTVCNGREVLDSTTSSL

[29] = CEM21 cell cytotoxicity, dose response, cytotoxicity control, plate reader, dry powder (AID 687026); type: functional, cell-based
[30] = A549 cell cytotoxicity, dose response, cytotoxicity control, plate reader, cherry-pick, antagonist series (AID 743412); type: functional, cell-based
[31] = LGR2 antagonists, dose response, cell-based, HEK293, CRE-luciferase reporter, cherry pick (AID 743342); type: functional
[32] = YAP1 pathway inhibition via CTGF transcript levels, dose response, cell-based, DLD1 colon cancer, RT-qPCR, cherry-pick (AID 1053122); type: functional; conditions: Cancer cell lines
[33] = Counterscreen for antagonists of the human trace amine associated receptor 1 (hTAAR1): Fluorescence-based cell-based high throughput dose response assay to identify nonselective Ga16 antagonists.; type: functional
[34] = biological target: Eukaryotic translation initiation factor 4E (Mus musculus, UniProt P63073); assay: eIF4E–eIF4G protein interaction inhibitors, dose response, biochemical, TR-FRET (AID 855); type: functional;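 further: potency for disrupting eIF4E binding to eIF4GI seen as loss of FRET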
Sequence of Eukaryotic translation initiation factor 4E (P63073 whole entry): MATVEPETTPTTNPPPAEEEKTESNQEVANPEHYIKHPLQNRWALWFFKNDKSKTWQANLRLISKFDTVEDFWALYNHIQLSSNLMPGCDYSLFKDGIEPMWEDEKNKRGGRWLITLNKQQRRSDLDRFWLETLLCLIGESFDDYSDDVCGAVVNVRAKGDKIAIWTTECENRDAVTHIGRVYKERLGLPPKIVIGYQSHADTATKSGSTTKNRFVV

[35] = Counterscreen for […] of the human trace amine associated receptor 1 (TAAR1): Fluorescence-based cell-based high throughput dose response assay to identify nonselective Ga16 agonists.; type: functional

Cc1cc(N(CCO)CCO)ccc1N=Nc1cc(F)ccc1F
IC50 [1]: 31.6 µM (inactive)
IC50 (Nonstructural protein 1): 19.2 µM (active)

CN(CC(=O)N1CCN(c2ccccn2)CC1)S(=O)(=O)c1ccc(Br)cc1
EC50 [2]: 82.8 nM (active) and 35.6 nM (active)
EC50 [3]: 0.0191 µM (active)

O=C(CSc1nnc(NC(=O)c2ccccc2)s1)NCc1ccco1
IC50 (Beta-lactamase [4]): > 59.6 µM (inactive)
IC50 (Beta-lactamase [5]): > 59.6 µM (inactive)
IC50 (Beta-lactamase [6]): > 59.6 µM (inactive)

CN1CCSc2ccc(C(=O)Nc3ccc(Cl)cc3)cc21
IC50 [7]: > 1.11 µM (active)
EC50 [8]: 0.321 µM (active)
EC50 [9]: 0.148 µM (active)
IC50 [10]: 9.21 µM (active)
EC50 [11]: 0.208 µM (active)
EC50 (H4): 0.101 µM (active)
EC50 [12]: 0.366 µM (active)
IC50 [13]: 8.59 µM (active)

CN1CCN(Cc2c(O)c(Cl)cc3c(-c4ccccc4)cc(=O)oc23)CC1
EC50 (Kallikrein-7): 68.3 µM (inactive)
EC50 [14]: > 0.286 µM (active)

COc1ccc2c(c1)CC/C(=C\c1ccc(OC)c(Cn3nc(C)cc3C)c1)C2=O
IC50 (Estrogen receptor): > 50 µM (not active)
IC50 [15]: 26.8 µM (inactive)

CCc1c(C)c2cc(Cl)c(O)c(CN(C)C)c2oc1=O
AC50 [16]: 5.35 µM (active)

Cc1c(Cl)ccc2sc(NC(=O)c3ccco3)nc12
AC50 [17]: 17.4 µM (active)

CN(CCCC(=O)O)c1ccc(N=Nc2ccc([N+](=O)[O-])cc2)cc1
IC50 [18]: 18.9 µM (active)
IC50 (Nonstructural protein 1): 9.48 µM (active)

CCCCCc1c(-c2ccccc2OC)ncn1CCc1ccccc1OC
AC50 (Vero): 3.91 µM (active)
AC50 (Paired box protein Pax-8): 24.9 µM (active)
AC50 (A549): 13.9 µM (active)

COc1ccc2c3c([nH]c2c1)[C@H](CO)N(C(=O)Nc1cccc(F)c1)CC31CN(S(=O)(=O)c2ccccc2)C1
AC50 (BHK-21): 34.1 µM (active)

CC(=O)N(C)C[C@@H]1Oc2cc(C#Cc3ccc(F)cc3)ccc2S(=O)(=O)N([C@H](C)CO)C[C@H]1C
AbsAC35 [19]: 109.84 µM
AbsAC35 [20]: 57.53 µM

COc1ccccc1C#Cc1ccc2c(c1)O[C@H](CN(C)Cc1cccnc1)[C@H](C)CN([C@@H](C)CO)S2(=O)=O
AC50 [21]: 21.4 µM (active)
AC50 (Paired box protein Pax-8): 7.51 µM (active)
AC50 [22]: 32.2 µM (active)
AbsAC35 [23]: 38.33 µM

[O-][n+]1onc2c1CCc1c-2nn(-c2ccccc2)[n+]1[O-]
AC50 (Caspase-6): 22.9 µM (active)

O=C(O)C1CCCCC1C(=O)N1CCc2ccccc2C1CN1C(=O)c2ccccc2S1(=O)=O (stereo unspecified)
AC50 [24]: 78.9 µM (active)
AC50 [25]: 71.1 µM (active)

CC(C)(C)OC(=O)Nc1nc2ccc(C(=O)Nc3ccnc(F)c3)cc2s1
CC50 [26]: > 300 µM (inactive)

O=C(O)[C@H]1CCCC[C@H]1C(=O)N1CCc2ccccc2[C@H]1CNS(=O)(=O)c1ccc([N+](=O)[O-])cc1
AC50 [27]: 88.3 µM (active)

Cc1cc2cc(C#Cc3ccc(C(=O)N4CCCC(CO)C4)cc3)ccc2o1 (stereo unspecified)
IC50 [28]: 3.91 µM

CCCOc1ccc(S(=O)(=O)NCc2ccncc2)c2ccccc12
AC50 [29]: > 70 µM (inactive)

C[C@H](CO)N1C[C@H](C)[C@H](CN(C)C(=O)Nc2ccc(F)cc2)OCCCC[C@H](C)Oc2ccc(NC(=O)Nc3ccc(F)cc3)cc2C1=O
AC50 [30]: > 47 µM (inactive)
AC50 [31]: 16.1 µM (active)

COc1ccccc1NC(=O)N1CCCCN2[C@@H](CO)[C@H](c3ccc(-c4cccc(C#N)c4)cc3)[C@@H]2C1
AC50 [32]: 0.918 µM (active)

Cc1ccc(-n2c(C)cc(/C=N/Nc3ccc([N+](=O)[O-])cn3)c2C)cc1
IC50 [33]: > 29.9 µM (inactive)
IC50 [34]: > 64 µM (inactive)
EC50 [35]: > 29.9 µM (inactive)
